The first assay concerns the target T1, Rev-Erb alpha (Homo sapiens, UniProt P20393).
T1 sequence (P20393 284-614 limits assumed): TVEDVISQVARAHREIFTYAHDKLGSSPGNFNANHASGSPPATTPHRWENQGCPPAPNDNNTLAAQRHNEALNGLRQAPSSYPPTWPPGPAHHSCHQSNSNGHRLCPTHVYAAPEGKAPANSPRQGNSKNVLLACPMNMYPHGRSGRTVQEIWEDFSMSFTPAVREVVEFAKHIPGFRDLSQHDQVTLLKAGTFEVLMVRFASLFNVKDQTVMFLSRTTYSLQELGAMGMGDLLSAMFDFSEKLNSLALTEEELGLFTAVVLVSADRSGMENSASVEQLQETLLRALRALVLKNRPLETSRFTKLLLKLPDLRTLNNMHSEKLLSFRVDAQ
The assay is described as follows: M2H (mammalian two-hybrid) cellular activation assay of Rev-Erb alpha. Format: cell-based. The note with it: M2H assay, HEK293 cells, Gal4-Rev-Erb alpha / VP16-NCoR, luciferase reporter. Here is the method:
In this system, Rev-Erb alpha or Rev-Erb beta is expressed as a fusion to the Gal4 DNA-binding domain and the cofactor NCoR is expressed as a fusion to the activation domain of the Herpes Simplex Virus tegument protein VP16. These fusion proteins were included in plasmids at a concentration of 1 μg/μL. The pBS-SK+ vector was added to the preparation to adjust the DNA quantity to a fixed value for each condition.
The transfection mix (Jet-PEI protocol, Polyplus transfection) comprised: • 3 mL of Jet PEI Mix (180 μL Jet-Pei and NaCl at 150 mM) and • 3 mL of the DNA Mix or of the DNA Mix control (wherein the Gal4-Rev-Erb alpha plasmid was replaced by a pGal4phi plasmid).
DNA Mix comprised 1.2 mL of DNA and 1.8 mL of NaCl at 150 mM with, in a T225 flask: • 90 ng of Gal4-Rev-Erb alpha, or 90 ng of Gal4-Rev-Erb beta, • 4500 ng of VP16-NCoR, • 27000 ng of Gal4-RE and • 13410 ng of pBS-SK+. Cells
HEK293 cells were cultured in DMEM (Invitrogen 41965) comprising 10% FBS, P/S, 1% glutamine, 1% pyruvate (Invitrogen 11360) and 1% amino acids (Invitrogen 11140). Cells were then batch co-transfected with plasmid vectors (described in the table above) using as Jet-PEI as reagent (Polyplus) following the protocol specified below.
The 6 mL-transfection mix was transferred in a T225 flask. HEK293 cells were then added at a concentration of 12 Millions of cells for 54 mL of medium (DMEM comprising 10% FBS and 1% P/S). Cells incubated over-night at 37° C. and under 5% CO2.
This cell-based assay is performed using 384-well Greiner white plates (Reference 781080). After the incubation, cells were rinsed with PBS, trypsinized, centrifuged and resuspended in free-serum DMEM without phenol red (Invitrogen 31053). Cells were counted and adjusted to 0.5 Million per mL and plated at a concentration of 10,000 cells in 20 μL per well. They were incubated a minimum of 4 hours at 37° C. under 5% CO2. Cells were treated with 20 μL of the compound to analyze (concentration of 2× diluted in DMEM without FBS containing a maximum of 1% DMSO) and incubated over-night (18 hours, 37° C. and 5% CO2). Each compound has been tested at 6 different concentrations to depict a dose-effect allowing the measure of biochemical parameters such as EC50 and TOP activation (%).
Cells were incubated 30 minutes with 40 μL/well of Steady Glow (Promega) and luminescence was read with TECAN Genios Pro (100 ms/w). Four experiments were carried out for each compound.
Each compound has been tested at 6 different concentrations to depict a dose-effect allowing the measure of biochemical parameters such as EC50 and TOP activation (%).
The mammalian two-hybrid system (M2H) assay consists herein in studying the ability of compounds according to the invention to activate Rev-Erbalpha in cells and thus modulate the interaction with its corepressor. The interaction of the two proteins is assessed with the help of the Luciferase reporter gene. HEK293 cells were transfected with two gene constructions: Gal4-RE VP16-NCoR and Gal4-Rev-Erbalpha or with Gal4-RE, sVP16-NCoR and Gal4-Rev-Erb beta.
The ability of compounds according to the invention of activating Rev-Erbalpha alpha or Rev-Erb beta was assessed in the described cell-based assay. EC50 and TOP activation (%) were measured.
Broadly, the EC50 is the concentration needed to bring the measured effect to its halfway point. A low value points to greater potency. For the compound `CN(Cc1ccccc1)Cc1ccc(Oc2ccc3nnc(Cl)n3n2)c(-c2ccccc2)c1`, the EC50 is 0.1 to 1 µM.
In turn, `CN(CCc1ccccc1)Cc1ccc(Oc2ccc3nnc(Cl)n3n2)c(-c2ccccc2)c1` came in with an EC50 of 1 to 6 µM.
Same read-out and setting: for `CN(Cc1ccc(Oc2ccc3nnc(Cl)n3n2)c(-c2ccccc2)c1)C1CCCCC1` the value was 1 to 6 µM; for `FC(F)(F)c1cccc(Oc2ccc3nnc(Cl)n3n2)c1-c1ccccc1`, less than 0.1 µM; for `Fc1cccc(-c2cccc(Oc3ccc4nnc(Cl)n4n3)c2)c1` [Cpd.3-6, 6-(3′-fluoro-biphenyl-3-yloxy)-3-chloro-[1,2,4]triazolo[4,3-b]pyridazine], 0.1 to 1 µM.
On to `COc1ccc(-c2cccc(Oc3ccc4nnc(Cl)n4n3)c2)cc1` [Cpd.3-7, 6-(4′-methoxy-biphenyl-3-yloxy)-3-chloro-[1,2,4]triazolo[4,3-b]pyridazine], for which the concentration giving a half-maximal response (EC50) lay within 1 to 6 µM.
On to `FC(F)(F)c1nnc2ccc(Oc3ccccc3-c3ccccc3)nn12` [Cpd.4-2, 6-(biphenyl-2-yloxy)-3-(trifluoromethyl)-[1,2,4]triazolo[4,3-b]pyridazine], for which the EC50 lay in the range of 0.1 to 1 µM.
For the compound `Fc1ccc(-c2ccccc2Oc2ccc3nnc(Cl)n3n2)c(F)c1` [Cpd.4-13, 6-(2′,4′-difluoro-biphenyl-2-yloxy)-3-chloro-[1,2,4]triazolo[4,3-b]pyridazine], the EC50 lay in the range of 0.1 to 1 µM.
Still for that read-out and setting: the result for `COc1cccc(-c2ccccc2Oc2ccc3nnc(Cl)n3n2)c1` [Cpd.4-16, 6-(3′-methoxy-biphenyl-2-yloxy)-3-chloro-[1,2,4]triazolo[4,3-b]pyridazine] reads 0.1 to 1 µM.
`FC(F)(F)c1cccc(-c2ccccc2Oc2ccc3nnc(Cl)n3n2)c1` [Cpd.4-28, 6-(3′-trifluoromethyl-biphenyl-2-yloxy)-3-chloro-[1,2,4]triazolo[4,3-b]pyridazine]: the EC50 lay within 0.1 to 1 µM.
Same read-out and setting: for `Clc1cccc(-c2ccccc2Oc2ccc3nnc(Cl)n3n2)c1` [Cpd.4-29, 6-(3′-chloro-biphenyl-2-yloxy)-3-chloro-[1,2,4]triazolo[4,3-b]pyridazine] the value was 0.1 to 1 µM.
In the case of `Nc1ccc(Oc2ccc3nnc(Cl)n3n2)c(-c2ccccc2)c1` [Cpd.4-36, 6-(5-amino-biphenyl-2-yloxy)-3-chloro-[1,2,4]triazolo[4,3-b]pyridazine], the concentration giving a half-maximal response (EC50) was 1 to 6 µM.
The same measure, in the same setting: the result for `Oc1cccc(-c2ccc(C(F)(F)F)cc2Oc2ccc3nnc(Cl)n3n2)c1` [Cpd.4-37, 6-(3′-hydroxy-4-trifluoromethyl-biphenyl-2-yloxy)-3-chloro-[1,2,4]triazolo[4,3-b]pyridazine] reads 0.1 to 1 µM.
The same measure, in the same setting: the result for `FC(F)(F)c1ccc(Oc2ccc3nnc(Cl)n3n2)c(-c2ccccc2)c1` [Cpd.4-40, 6-(5-trifluoromethyl-biphenyl-2-yloxy)-3-chloro-[1,2,4]triazolo[4,3-b]pyridazine] reads 0.1 to 1 µM.
Still for that read-out and setting: for `O=C(c1ccccc1)c1cc(Cl)ccc1Oc1ccc2nnc(Cl)n2n1` [Cpd.4-42, (5-chloro-2-(3-chloro-[1,2,4]triazolo[4,3-b]pyridazin-6-yloxy)phenyl)(phenyl)methanone] the value was 1 to 6 µM; for `COC(=O)c1ccc(-c2ccccc2)c(Oc2ccc3nnc(Cl)n3n2)c1` [Cpd.4-43, 3-chloro-6-(4-methyloxycarbonyl-biphenyl-2-yloxy)-[1,2,4]triazolo[4,3-b]pyridazine], less than 0.1 µM; for `Nc1ccc(-c2ccccc2)c(Oc2ccc3nnc(Cl)n3n2)c1` [Cpd.4-48, 3-chloro-6-(4-amino-biphenyl-2-yloxy)-[1,2,4]triazolo[4,3-b]pyridazine], 1 to 6 µM.
Turning to `CC(=O)Nc1ccc(-c2ccccc2)c(Oc2ccc3nnc(Cl)n3n2)c1` [Cpd.4-49, 3-chloro-6-(4-acetamido-biphenyl-2-yloxy)-[1,2,4]triazolo[4,3-b]pyridazine], the 50% effective concentration (EC50) lay within 1 to 6 µM.
Still for that read-out and setting: the result for `CNc1ccc(-c2ccccc2)c(Oc2ccc3nnc(Cl)n3n2)c1` [Cpd.4-52, 3-chloro-6-(4-N-methylamino-biphenyl-2-yloxy)-[1,2,4]triazolo[4,3-b]pyridazine] reads 0.1 to 1 µM; that for `CCCCN(CCCC)c1ccc(Oc2ccc3nnc(Cl)n3n2)c(-c2ccccc2)c1` [Cpd.4-57, 3-chloro-6-(5-dibutylamino-biphenyl-2-yloxy)-[1,2,4]triazolo[4,3-b]pyridazine], 0.1 to 1 µM; that for `Fc1cc(Oc2ccc3nnc(C(F)(F)F)n3n2)c(-c2ccccc2)cc1F` [Cpd.4-61, 3-trifluoromethyl-6-(4,5-difluorobiphenyl-2-yloxy)-[1,2,4]triazolo[4,3-b]pyridazine], 1 to 6 µM.
Still for that read-out and setting: for `Clc1nnc2ccc(Oc3ccc(CN4CCOCC4)cc3-c3ccccc3)nn12` [Cpd.4-62, 3-chloro-6-(5-morpholinomethyl-biphenyl-2-yloxy)-[1,2,4]triazolo[4,3-b]pyridazine] the value was 1 to 6 µM.
On the same count and under the same terms, the result for `CN(C)Cc1ccc(Oc2ccc3nnc(Cl)n3n2)c(-c2ccccc2)c1` [Cpd.4-63, 3-chloro-6-(5-N,N-dimethylaminomethyl-biphenyl-2-yloxy)-[1,2,4]triazolo[4,3-b]pyridazine] reads more than 6 µM; that for `NCc1ccc(-c2ccccc2)c(Oc2ccc3nnc(Cl)n3n2)c1` [Cpd.4-65, 3-chloro-6-(4-aminomethyl-biphenyl-2-yloxy)-[1,2,4]triazolo[4,3-b]pyridazine], more than 6 µM; that for `OCc1ccc(Oc2ccc3nnc(Cl)n3n2)c(-c2ccccc2)c1` [Cpd.4-66, 3-chloro-6-(5-hydroxymethyl-biphenyl-2-yloxy)-[1,2,4]triazolo[4,3-b]pyridazine], 1 to 6 µM.
Turning to `COC(=O)c1ccc(Oc2ccc3nnc(Cl)n3n2)c(-c2ccccc2)c1` [Cpd.4-69, 3-chloro-6-(5-methyloxycarbonyl-biphenyl-2-yloxy)-[1,2,4]triazolo[4,3-b]pyridazine], the EC50 lay within 0.1 to 1 µM.
The same measure, in the same setting: for `COc1cccc(-c2ccc(C(F)(F)F)cc2Oc2ccc3nnc(Cl)n3n2)c1` [Cpd.4-71, 3-chloro-6-(3′-methoxy-4-trifluoromethyl-biphenyl-2-yloxy)-[1,2,4]triazolo[4,3-b]pyridazine] the value was 0.1 to 1 µM.
On the same count and under the same terms, for `NC(=O)c1cccc(-c2ccc(C(F)(F)F)cc2Oc2ccc3nnc(Cl)n3n2)c1` [Cpd.4-72, 3-chloro-6-(4-trifluoromethyl-3′-aminocarbonyl-biphenyl-2-yloxy)-[1,2,4]triazolo[4,3-b]pyridazine] the value was 1 to 6 µM; for `COC(=O)c1cccc(-c2cc(F)ccc2Oc2ccc3nnc(Cl)n3n2)c1` [Cpd.4-75], 1 to 6 µM; for `COc1cccc(-c2cc(F)ccc2Oc2ccc3nnc(Cl)n3n2)c1` [Cpd.4-76, 3-chloro-6-(5-fluoro-3′ methoxy-biphenyl-2-yloxy)-[1,2,4]triazolo[4,3-b]pyridazine], 0.1 to 1 µM.
Still for that read-out and setting: the result for `Fc1ncccc1-c1ccc(C(F)(F)F)cc1Oc1ccc2nnc(Cl)n2n1` [Cpd.4-78, 3-chloro-6-(2-(2-fluoropyridin-3-yl)-5-(trifluoromethyl)phenoxy)-[1,2,4]triazolo[4,3-b]pyridazine] reads 0.1 to 1 µM.

The same assay, now with this note: M2H assay, HEK293 cells; relative to DMSO; at the tested dose; read-out: TOP activation.
Take `CN(C)Cc1ccc(Oc2ccc3nnc(Cl)n3n2)c(-c2ccccc2)c1` [Cpd.4-63, 3-chloro-6-(5-N,N-dimethylaminomethyl-biphenyl-2-yloxy)-[1,2,4]triazolo[4,3-b]pyridazine]: the Emax is more than 130%.
`NCc1ccc(-c2ccccc2)c(Oc2ccc3nnc(Cl)n3n2)c1` [Cpd.4-65, 3-chloro-6-(4-aminomethyl-biphenyl-2-yloxy)-[1,2,4]triazolo[4,3-b]pyridazine]: the Emax is more than 130%.

The values are drawn from patent publication US9586963B2 (GENFIT, priority 2011, dated 2017).
